Values of other authors as cited in the CATMoS acute toxicity set (Mansouri et al. 2021).
Where “and” joins values, the source holds several entries; their conditions need not be identical. Equal entries are not always repeated.

Experiment: rat acute oral toxicity
Conditions: in vivo
Excerpt: […]The data set underlying the modeling effort for this project was initially compiled by NICEATM and U.S. EPA’s CCTE. Briefly, LD50 data were collected from rat acute oral systemic toxicity tests, including limit tests, ranges/confidence intervals, and discrete LD50 values. The full data set included 21,200 LD50 entries for 15,688 substances. […] Data were reviewed to ensure that LD50 values with obvious errors in the extracted data such as unit conversion errors (e.g., comma and decimal separator misplacements) were either fixed or removed. After this review, 16,209 LD50 values remained. Many of the chemicals represented had multiple LD50 entries, requiring that a single representative value per Chemical Abstracts Service Registry Number (CASRN) identifier be defined to facilitate modeling efforts. Based on ATWG feedback and to define the representative LD50 as a protective value while accounting for the distribution across multiple LD50s, the median of the lowest quartile was computed using only discrete LD50 values (omitting limit test data and range and confidence interval data). A detailed summary of the data compilation is available online on the NICEATM webpage dedicated to the collaborative modeling project (NTP 2020).
[…][…] For categorical designations, limit test and range/confidence interval LD50 data were integrated wherever possible. As such, the number of chemicals with end point values/calls varies across the modeling end points (Table 3) based on whether chemicals had representative LD50 values and/or other data. If a chemical had both, the representative value was used to determine categorical calls rather than limit test data. Some data were useable only for certain end points and categories depending on the thresholds. For example, ranges that spanned multiple hazard categories were considered only for the binary (very toxic/nontoxic) end points and omitted from rendering a determination for hazard category assignment.
[…]The final data set comprising 11,992 chemicals was split into training and evaluation sets […], respectively. This process was performed semirandomly by ordering chemicals based on the five end points (categorical and continuous LD50 values) and partitioning every fourth record into the evaluation set accordingly. This approach was taken to ensure an equivalent distribution of the LD50 values and the different hazard categories between the training and the evaluation sets without supervised sampling of the chemicals based on structures (Figure 1A). The sources of the chemical structures were also kept equivalent between the two sets, with chemical structures obtained from DSSTox, being the highest quality, representing over 75% of each set (Figure 1B).

Compound | LD50
CCCCC(C)(C)CO | 2200 mg/kg
CCC1(C)Oc2cccc(OC(=O)NC)c2O1 (configuration not stated) | 25 mg/kg
CCN(CCC#N)c1cccc(C)c1 | 3710 mg/kg
CCN1C[C@]2(COC)[C@H](O)C[C@H](OC)[C@]34C1[C@H]([C@H](OC)[C@H]23)[C@]1(OC(C)=O)[C@H]2[C@@H](OC(=O)c3ccccc3)[C@](O)(C[C@H]24)[C@@H](OC)[C@@H]1O | 5.97 mg/kg
O=C1c2ccc3c4c(ccc(c24)C(=O)C1(Cl)Cl)CC3 | 10600 mg/kg
CC(=O)OCCC(Cl)C(C)=O (configuration not stated) | 2050 mg/kg
C[C@H]1CC[C@@H]2[C@@H](C)[C@H]3[C@H](C[C@H]4[C@@H]5CC=C6CC(O[C@@H]7O[C@H](CO)[C@H](O)[C@H](O[C@@H]8O[C@H](CO)[C@@H](O)[C@H](O)[C@H]8O)[C@H]7O[C@H]7O[C@@H](C)[C@H](O)[C@@H](O)[C@H]7O)CC[C@]6(C)[C@H]5CC[C@]34C)N2C1 (some centres not stated) | 590 mg/kg
CC1C2Cc3ccc(O)cc3C1(C)CCN2CCc1ccccc1 (configuration not stated) | 90 mg/kg
CS(=O)(=O)OCCCNCCCOS(C)(=O)=O | 108 mg/kg
CC(C)(C)C(=O)COc1ccc(Cl)cc1 | 4650 mg/kg
CCOP(=O)(OCC)Oc1nc(Cl)c(Cl)cc1Cl | 135 mg/kg
CCOC(=O)N1C(=O)NC(c2ccccc2)(c2ccccc2)C1=O | 3500 mg/kg
CCCOC(N)=O | 1880 mg/kg
COc1ccccc1S | 1740 mg/kg
OCCCC(O)CO (configuration not stated) | 7800 mg/kg
COc1ccc2cc(C(C)C(=O)OCC(O)CO)ccc2c1 (configuration not stated) | 1630 mg/kg
O=[N+]([O-])c1ccc(/C=N/NC(=S)N2CCCCC2)o1 | 750 mg/kg
CC(C)CCCCCCCCCCOC(=O)c1ccccc1C(=O)OCCCCCCCCCCC(C)C | 31400 mg/kg
C=CC(O)C#N (configuration not stated) | 65 mg/kg
CC(=O)OCC[N+](C)(C)C | 2500 mg/kg
O=C(Cc1ccc(-c2ccccc2)cc1)Nc1ccccn1 | 1860 mg/kg
NCC(O)c1ccc(O)c(O)c1 (configuration not stated) | 132 mg/kg
CC1(C)[C@H]2CC[C@](C)(O)[C@@H]1C2 | 2050 mg/kg
CCCOC(=O)CCC | 15000 mg/kg
CN1CCN(CCCCCCCCNC(=O)Oc2ccc3c(c2)C2(C)CCN(C)C2N3C)CC1 (configuration not stated) | 27.7 mg/kg

Compound | LD50
COC(C)C=O (configuration not stated) | 940 mg/kg
Fc1c(Cl)c(F)c2nc(C(F)(F)F)[nH]c2c1Cl | 1.67 mg/kg
Cc1nc2ccccc2c(=O)n1-c1ccc(Br)cc1 | 185 mg/kg
CCCCOc1ccccc1NC(C)=O | 2900 mg/kg
O=C(OC1CC2NC(C1)C1OC21)C(CO)c1ccccc1 (configuration not stated) | 3020 mg/kg
COc1ccc(N)cc1Cl | 550 mg/kg
CN(C)C=C1C(=O)N(c2ccccc2)N=C1c1ccccc1 | 890 mg/kg
Cc1cc(S(=O)(=O)O)c2c(C)ccc(C(C)C)cc1-2 | 6380 mg/kg
COS(=O)(=O)c1ccccc1 | 740 mg/kg
C[Se]C | 2100 mg/kg
CCN(CC)CCc1nc(-c2ccccc2)no1 | 1650 mg/kg
CN(SC(Cl)(Cl)Cl)C(=O)Oc1cccc2c1OC(C)(C)C2 | 125 mg/kg
CN1CCCCC1CCN1c2ccccc2Sc2ccc(Cl)cc21 (configuration not stated) | 1200 mg/kg
C=CC(C)(O)CCC=C(C)C (configuration not stated) | 2790 mg/kg
ClCc1ccc(CCl)cc1 | 1280 mg/kg
O=c1c2ccccc2c2ccc3c4c(ccc1c24)c1ccc2c(=O)c4ccccc4c4nn3c1c24 | 13900 mg/kg
CC(=O)CC(=O)Nc1ccccc1 | 2450 mg/kg
CCC1(CC)Oc2cccc(OC(=O)N(C)C(C)=O)c2O1 | 375 mg/kg
O=C(C=Cc1ccccc1)OCC=Cc1ccccc1 | 4200 mg/kg
COc1ccc2c(c1)CCC(c1ccccc1)=C2c1ccc(OCCN2CCCC2)cc1 | 302 mg/kg
C[C@H](CCC(=O)O)[C@H]1CC[C@H]2[C@@H]3CC[C@@H]4C[C@H](O)CC[C@]4(C)[C@H]3C[C@H](O)[C@]12C | 1370 mg/kg and 1000 mg/kg
CC(C)COC(=O)c1ccccc1 | 5600 mg/kg
S=P(N1CC1)(N1CC1)N1CC1 | 23 mg/kg
O=C(OCC(Br)(Br)Br)c1ccco1 | 1500 mg/kg
CCCc1ccccc1O | 500 mg/kg

Compound | LD50
CCCC(Cn1cncn1)c1ccc(Cl)cc1Cl (configuration not stated) | 2120 mg/kg
COP(=S)(OC)Oc1ccc(Sc2ccc(OP(=S)(OC)OC)c(C)c2)cc1C | 250 mg/kg
CCCC(CCC)C(=O)O[C@H]1C[C@H]2CC[C@@H](C1)[N+]2(C)C | 705 mg/kg
O=C(Cl)C(Br)CBr (configuration not stated) | 1200 mg/kg
CCOC(C1=NCC(C)(C)N1)c1ccccc1 (configuration not stated) | 510 mg/kg
COC(OC)c1ccccc1 | 1220 mg/kg
CCCCCCCCOC(C[n+]1ccccc1)c1ccc(C(C)(C)C)cc1 (configuration not stated) | 250 mg/kg
CCOc1ccccc1OCCN[C@H](C)Cc1ccc(OC)c(S(N)(=O)=O)c1 | 650 mg/kg
COc1ccccc1C=Nc1ccccc1C(=O)O | 1500 mg/kg
CN(C)N=Nc1ccc([N+](=O)[O-])cc1 | 1660 mg/kg
O[C@@H]([C@H](O)[C@H](O)CBr)[C@H](O)CBr | 1500 mg/kg
CC12CCC3(CCCC(C)(C)C3C1)OC2=O (configuration not stated) | 1600 mg/kg
O=C1CCc2cc(C(O)CCCN3CCN(c4cccc(Cl)c4)CC3)ccc2N1 (configuration not stated) | 500 mg/kg
O=[N+]([O-])c1cc(Cl)cc(-c2cc(Cl)cc([N+](=O)[O-])c2O)c1O | 10 mg/kg
O=C1CCc2cc(C=CCN3CCN(c4ccc(Cl)cc4)CC3)ccc2N1 | 500 mg/kg
NCCCn1ccnc1 | 1780 mg/kg
O=[N+]([O-])c1cc([N+](=O)[O-])c2nc(C(F)(F)F)[nH]c2c1 | 11.5 mg/kg
O=C(Nc1ccccc1)Nc1cnns1 | 5350 mg/kg
CC(=O)O[C@H]1C[C@@H]2CC[C@@H]3[C@H](CC[C@@]4(C)[C@H]3C[C@H]([N+]3(C)CCCCC3)[C@@H]4OC(C)=O)[C@@]2(C)C[C@@H]1N1CCCCC1 | 455 mg/kg
CC(C)(C)NCC(O)c1ccc(O)c(CO)n1 (configuration not stated) | 2800 mg/kg
CNC(=O)c1ccc(Cl)c(S(=O)(=O)NC)c1 | 1400 mg/kg
CNC(=O)O[C@@H]1C[C@H](C)CC[C@H]1C(C)C | 250 mg/kg
CC(C)CCC(=O)O | 2050 mg/kg
CCOP(=S)(OCC)Sc1ccc(C)cc1 | 316 mg/kg
O=C1CCC(C(=O)NC2CC2c2ccccc2)N1 (configuration not stated) | 96 mg/kg

Compound | LD50
CN=C(O)O/N=C(/C)C(C)(C)[N+](=O)[O-] | 13 mg/kg
CC(C)=NOC(=O)Nc1ccccc1 | 1540 mg/kg
OCCNCCc1ccccc1 | 1870 mg/kg
O=S(=O)(Nc1ncc(OCCO)cn1)c1ccccc1 | 8000 mg/kg
ClCCOCCOCCOCCCl | 180 mg/kg
CC=Cc1ccc(OC(C)=O)c(OC)c1 | 3450 mg/kg
CC1CNCCN1 (configuration not stated) | 2030 mg/kg
Cc1cccc(NC(N)=O)c1 | 1330 mg/kg
CC(=O)N1N=C(c2ccc(N)cc2)c2cc3c(cc2CC1C)OCO3 (configuration not stated) | 200 mg/kg
C#CCSP(=O)(OCC)OCC | 18 mg/kg
CNC(=S)/C=C/c1ccc2c(c1)OCO2 | 230 mg/kg
COc1ccc(C(Oc2ccccc2)C2=NCCCN2)cc1 (configuration not stated) | 1000 mg/kg
CC(c1ccc(OC#N)cc1)c1ccc(OC#N)cc1 | 1000 mg/kg
CCc1nccnc1C | 600 mg/kg
COC1CC2CC1C1CC(C=O)CC21 (configuration not stated) | 2800 mg/kg
C/C=C(C)/C=C/C=C(C)C | 1900 mg/kg
Nc1ccc2[nH]c3c(c2c1)CCCC3 | 374 mg/kg
C=C(Cl)C(=O)OC | 68 mg/kg
O=C1NC(=O)C2(c3ccc(Cl)cc3)CC12 (configuration not stated) | 1550 mg/kg
CCCC=C(C=NCCCCCCCCCCCCCCCCCCCCC)CC | 5320 mg/kg
ClCc1cccc(Oc2ccccc2)c1 | 1220 mg/kg
CCCCCCCCCCCC=O | 23000 mg/kg
CC(=O)c1ccc2c(c1)N(CCCN1CCN(C)CC1)c1ccccc1S2 | 650 mg/kg
CC1(C(=O)O)C2CCC(O2)C1C(=O)O (configuration not stated) | 50 mg/kg
O=Cc1cccc2ccccc12 | 667 mg/kg

Compound | LD50
COP(=S)(OC)SCSc1ccccc1 | 16 mg/kg
C=CCC1(C(C)CCC)C(=O)N=C(O)NC1=O (configuration not stated) | 125 mg/kg
S=C(NC1CCCCC1)NC1CCCCC1 | 500 mg/kg
C=C(Cl)CSC(=S)N(CC)CC | 850 mg/kg
Cc1ccc(S(=O)(=O)Cl)cc1 | 4680 mg/kg
CCCC(=O)OC1CCC(N2CCCCC2)CC1 (configuration not stated) | 1910 mg/kg
CC1(NC(N)=O)CCCC1 | 1200 mg/kg
CCC(C)=C1C(=O)N(c2ccccc2)N(c2ccccc2)C1=O | 2020 mg/kg
FC(F)(F)c1nc2c(Cl)c(Cl)c(Br)cc2[nH]1 | 2.78 mg/kg
COC(=O)CC(SP(=O)(OC)OC)C(=O)OC (configuration not stated) | 103 mg/kg
c1cc2c(c(NC3=NCCN3)c1)CCC2 | 481 mg/kg
CC(C)OP(O)(=S)OC(C)C | 20200 mg/kg
CC(C)(c1cc(Cl)c(O)c(Cl)c1)c1cc(Cl)c(O)c(Cl)c1 | 7430 mg/kg
C1CCC(CNC2=NCCS2)CC1 | 50 mg/kg
Clc1cc(Cl)c(-c2c(Cl)c(Cl)c(-c3c(Cl)cc(Cl)c(Cl)c3Cl)c(Cl)c2Cl)cc1Cl | 16000 mg/kg
CCNC(C)CN1CCc2c(c(=O)oc3ccccc23)C1 (configuration not stated) | 300 mg/kg
O=Cc1cccc(Oc2ccccc2)c1 | 1220 mg/kg
NC(=S)Cc1cccc2ccccc12 | 60 mg/kg
CC(C)CC(C)OC(=O)CC(C(=O)OC(C)CC(C)C)S(=O)(=O)O (configuration not stated) | 1750 mg/kg
CCCc1c(OCCCCc2nnn[nH]2)ccc(C(C)=O)c1O | 650 mg/kg
O=CC(Br)=Cc1ccccc1 | 1450 mg/kg
COc1ccc(C=CC(=O)O)cc1O | 7900 mg/kg
